The values that follow come from ChEMBL document CHEMBL1777796, “Synthesis and evaluation of carbaborane derivatives of indomethacin as cyclooxygenase inhibitors” (Bioorg Med Chem, 2011).

The target in test [1] is T1, Prostaglandin G/H synthase 1 (Ovis aries, UniProt P05979).
T1 sequence (P05979 whole entry): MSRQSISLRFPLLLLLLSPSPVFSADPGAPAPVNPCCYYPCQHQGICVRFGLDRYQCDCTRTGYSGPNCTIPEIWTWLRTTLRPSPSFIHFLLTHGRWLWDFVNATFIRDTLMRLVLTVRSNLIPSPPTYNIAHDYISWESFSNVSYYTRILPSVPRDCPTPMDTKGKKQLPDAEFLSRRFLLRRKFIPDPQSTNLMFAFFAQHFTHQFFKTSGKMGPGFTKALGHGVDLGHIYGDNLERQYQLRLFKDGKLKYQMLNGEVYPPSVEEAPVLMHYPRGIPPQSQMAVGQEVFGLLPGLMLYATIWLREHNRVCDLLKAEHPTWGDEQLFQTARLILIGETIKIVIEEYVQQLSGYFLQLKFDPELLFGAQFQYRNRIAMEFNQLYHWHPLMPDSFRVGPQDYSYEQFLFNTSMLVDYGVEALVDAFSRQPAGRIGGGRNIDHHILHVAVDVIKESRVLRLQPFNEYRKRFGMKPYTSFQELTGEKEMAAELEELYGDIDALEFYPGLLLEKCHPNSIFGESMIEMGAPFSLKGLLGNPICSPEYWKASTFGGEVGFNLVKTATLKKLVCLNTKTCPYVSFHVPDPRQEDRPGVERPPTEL
Kind of test: Inhibition of ovine COX1 assessed as conversion of [14C]-arachidonic acid to [14C]-prostaglandins preincubated for 17 mins by thin-layer chromatography analysis.

For test [2], the target named is T2, Prostaglandin G/H synthase 2 (Mus musculus, UniProt Q05769).
T2 sequence (Q05769 whole entry): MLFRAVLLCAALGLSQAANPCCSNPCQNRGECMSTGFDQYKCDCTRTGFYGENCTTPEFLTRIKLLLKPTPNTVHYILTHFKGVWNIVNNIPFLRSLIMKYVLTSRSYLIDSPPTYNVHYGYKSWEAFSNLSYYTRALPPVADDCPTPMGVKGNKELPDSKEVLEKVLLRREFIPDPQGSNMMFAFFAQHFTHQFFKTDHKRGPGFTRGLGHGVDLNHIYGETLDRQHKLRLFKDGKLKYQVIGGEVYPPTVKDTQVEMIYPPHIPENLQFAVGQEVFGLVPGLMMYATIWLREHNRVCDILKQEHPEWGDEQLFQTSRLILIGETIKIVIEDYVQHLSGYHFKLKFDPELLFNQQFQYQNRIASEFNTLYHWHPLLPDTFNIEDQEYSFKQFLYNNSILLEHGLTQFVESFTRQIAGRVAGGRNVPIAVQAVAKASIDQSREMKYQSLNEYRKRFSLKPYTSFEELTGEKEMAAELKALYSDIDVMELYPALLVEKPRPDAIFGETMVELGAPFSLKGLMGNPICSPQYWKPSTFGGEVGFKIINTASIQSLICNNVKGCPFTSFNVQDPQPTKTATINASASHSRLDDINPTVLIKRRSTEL
Kind of test: Inhibition of mouse COX2 assessed as conversion of [14C]-arachidonic acid to [14C]-prostaglandins preincubated for 17 mins by thin-layer chromatography analysis.

As usually defined, the IC50 is the midpoint of a concentration-inhibition curve.

`COc1ccc2c(c1)c(CC(=O)OC13CC4CC(CC(C4)C1)C3)c(C)n2C(=O)c1ccc(Cl)cc1`: the IC50 in test [1] and in test [2] was above 25 µM in each case.
